Experimental data taken from patent publication US12552815B2, “Boronic acid derivatives and synthesis, polymorphic forms, and therapeutic uses thereof” (QPEX BIOPHARMA, INC., priority 2020, dated 2026).

Assay: Dynamic vapor sorption (DVS) analysis
Format: physicochemical
Details: for hygroscopicity / water uptake by dynamic vapor sorption (DVS): 25° C., 10% RH steps from 5 to 95% RH and from 95 to 5% RH
Experimental: DVS analysis was carried out using a TA Instruments Q5000 Dynamic Vapor Sorption analyzer. The instrument was calibrated with standard weights and a sodium bromide standard for humidity. Approximately 20 mg of sample was loaded into a metal-coated quartz pan for analysis. The sample was analyzed at 25° C. with a maximum equilibration time of one hour in 10% relative humidity (RH) steps from 5 to 95% RH (adsorption cycle) and from 95 to 5% RH (desorption cycle). The movement from one step to the next occurred either after satisfying the equilibrium criterion of 0.01% weight change or, if the equilibrium criterion was not met, after one hour. The percent weight change values were calculated using Microsoft Excel®. The temperature for the DVS analysis can impact the outcome of the results.
Differential Scanning Calorimetry (5° C./min), Thermogravimetric analysis (5° C./min), and Dynamic Vapor Sorption (stepwise RH decrease from 45% to 0% at 50° C.) data for highly crystalline Form A of Compound I′ prepared analogously to the crystallization method above is shown in FIGS. 27-29, respectively.

| SMILES | hygroscopicity / water uptake by dynamic vapor sorption (DVS) | gain/loss of water by dynamic vapor sorption (DVS), highly crystalline sample (relative humidity range of 5% to 75%, FIG. 29, stepwise RH decrease from 45% to 0% at 50° C.) |
| --- | --- | --- |
| CCOC(=O)c1c(F)ccc2c1O[B-]1(C=C2)O[C@@H](c2ccccc2)[C@H](C)[NH+]1C (stereo partly shown) [Compound A-3, pseudoephedrine complex of ethyl 7-fluoro-2-hydroxy-2H-benzo[e][1,2]oxaborinine-8-carboxylate] | not hygroscopic |  |
| CCOC(=O)c1c(F)ccc2c1O[B-]1(O[C@@H](c3ccccc3)[C@H](C)[NH+]1C)[C@@H]1C[C@H]21 (stereo partly shown) [Compound A-4] | not hygroscopic |  |
| O=C([O-])c1c(F)ccc2c1O[B-](O)(O)[C@@H]1C[C@H]21.[Na+].[Na+] [Form A of Compound I′] | hygroscopic | resists gain/loss of water |
